Assay results as given in the NIST ThermoML archive (doi:10.1021/je800012v).

Experiment: xn = mol fraction of the nth substance listed
Settings: Liquid

CCCCCl [1-chlorobutane] + CCCCCC
mass density [kg/m3]
Settings	x1 = 0.1099	x1 = 0.212	x1 = 0.2925	x1 = 0.316	x1 = 0.405	x1 = 0.4978	x1 = 0.5975	x1 = 0.6869	x1 = 0.8294	x1 = 0.9025
283.15 K, 100 kPa	688.16	707.78	724.14	728.91	747.8	768.4	791.4	813.19	849.71	869.66
283.15 K, 2500 kPa	690.51	710.17	726.49	731.23	750.19	770.77	793.76	815.54	852.04	871.97
283.15 K, 5000 kPa	692.85	712.52	728.83	733.62	752.56	773.13	796.11	817.89	854.38	874.31
283.15 K, 10000 kPa	697.27	716.94	733.31	738.08	757.05	777.64	800.62	822.39	858.86	878.8
283.15 K, 15000 kPa	701.44	721.17	737.55	742.33	761.32	781.91	804.89	826.69	863.18	883.07
283.15 K, 20000 kPa	705.42	725.18	741.57	746.36	765.38	785.99	808.98	830.8	867.28	887.19
283.15 K, 25000 kPa	709.18	728.95	745.4	750.17	769.24	789.87	812.89	834.7	871.21	891.13
283.15 K, 30000 kPa	712.77	732.59	749.06	753.86	772.94	793.59	816.62	838.47	875.01	894.92
283.15 K, 35000 kPa	716.2	736.03	752.55	757.33	776.47	797.15	820.23	842.08	878.63	898.57
293.15 K, 100 kPa	679	698.47	714.61	719.31	738.08	758.47	781.32	802.85	839.13	858.87
293.15 K, 2500 kPa	681.5	701.01	717.13	721.84	740.6	761	783.84	805.38	841.63	861.35
293.15 K, 5000 kPa	684.03	703.52	719.69	724.38	743.13	763.54	786.39	807.91	844.15	863.85
293.15 K, 10000 kPa	688.77	708.3	724.48	729.18	747.97	768.33	791.18	812.71	848.93	868.63
293.15 K, 15000 kPa	693.23	712.77	728.99	733.71	752.5	772.88	795.72	817.27	853.49	873.18
293.15 K, 20000 kPa	697.41	717.01	733.23	737.99	756.78	777.19	800.04	821.6	857.83	877.51
293.15 K, 25000 kPa	701.41	721.03	737.29	742.03	760.9	781.3	804.2	–	–	–
